Test [1] addresses T1, baculovirus-expressed ALK (Homo sapiens, UniProt Q9UM73).
T1 construct: host or cells: baculovirus expression system
The experiment in a line: ALK Kinase Assay (ELISA-type, time-resolved fluorescence). Type of test: biochemical. Particulars: ALK kinase inhibition, 1 μM ATP (Km level); read-out: ALK Activity. In short, it runs like this: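 Wells were coated with phospholipase C-γ at 10 μg/mL in Tris-buffered saline. Adding 30 ng/ml enzyme started the reaction, which ran at 37° C for 15 minutes before Eu-N1 PT66 antibody detection. Percent inhibition versus log10 concentration gave IC50 by variable-slope fit.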
A general note: ELISA stands for enzyme-linked immunosorbent assay.

Test [2] has as its target T2, c-Met (cytoplasmic domain) (Homo sapiens, UniProt P08581).
T2 construct: 10 ng/mL c-Met (cytoplasmic domain, Invitrogen Corporation #PV3143); purchased Invitrogen Corporation PV3143
Nature of the test: c-Met Kinase Assay (same methods as for ALK, with modifications). The conditions noted are these: c-Met kinase inhibition, 1 μM ATP (Km level); read-out: cMet Activity. Type of test: biochemical. An outline of the steps: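 Steps: coat wells with PLC-γ (10 μg/mL, Tris-buffered saline); add 10 ng/mL c-Met cytoplasmic domain to initiate; incubate 15 min, 37° C; detect phosphoproduct via Eu-N1 PT66 antibody.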

T1 sequence (Q9UM73 19-1620): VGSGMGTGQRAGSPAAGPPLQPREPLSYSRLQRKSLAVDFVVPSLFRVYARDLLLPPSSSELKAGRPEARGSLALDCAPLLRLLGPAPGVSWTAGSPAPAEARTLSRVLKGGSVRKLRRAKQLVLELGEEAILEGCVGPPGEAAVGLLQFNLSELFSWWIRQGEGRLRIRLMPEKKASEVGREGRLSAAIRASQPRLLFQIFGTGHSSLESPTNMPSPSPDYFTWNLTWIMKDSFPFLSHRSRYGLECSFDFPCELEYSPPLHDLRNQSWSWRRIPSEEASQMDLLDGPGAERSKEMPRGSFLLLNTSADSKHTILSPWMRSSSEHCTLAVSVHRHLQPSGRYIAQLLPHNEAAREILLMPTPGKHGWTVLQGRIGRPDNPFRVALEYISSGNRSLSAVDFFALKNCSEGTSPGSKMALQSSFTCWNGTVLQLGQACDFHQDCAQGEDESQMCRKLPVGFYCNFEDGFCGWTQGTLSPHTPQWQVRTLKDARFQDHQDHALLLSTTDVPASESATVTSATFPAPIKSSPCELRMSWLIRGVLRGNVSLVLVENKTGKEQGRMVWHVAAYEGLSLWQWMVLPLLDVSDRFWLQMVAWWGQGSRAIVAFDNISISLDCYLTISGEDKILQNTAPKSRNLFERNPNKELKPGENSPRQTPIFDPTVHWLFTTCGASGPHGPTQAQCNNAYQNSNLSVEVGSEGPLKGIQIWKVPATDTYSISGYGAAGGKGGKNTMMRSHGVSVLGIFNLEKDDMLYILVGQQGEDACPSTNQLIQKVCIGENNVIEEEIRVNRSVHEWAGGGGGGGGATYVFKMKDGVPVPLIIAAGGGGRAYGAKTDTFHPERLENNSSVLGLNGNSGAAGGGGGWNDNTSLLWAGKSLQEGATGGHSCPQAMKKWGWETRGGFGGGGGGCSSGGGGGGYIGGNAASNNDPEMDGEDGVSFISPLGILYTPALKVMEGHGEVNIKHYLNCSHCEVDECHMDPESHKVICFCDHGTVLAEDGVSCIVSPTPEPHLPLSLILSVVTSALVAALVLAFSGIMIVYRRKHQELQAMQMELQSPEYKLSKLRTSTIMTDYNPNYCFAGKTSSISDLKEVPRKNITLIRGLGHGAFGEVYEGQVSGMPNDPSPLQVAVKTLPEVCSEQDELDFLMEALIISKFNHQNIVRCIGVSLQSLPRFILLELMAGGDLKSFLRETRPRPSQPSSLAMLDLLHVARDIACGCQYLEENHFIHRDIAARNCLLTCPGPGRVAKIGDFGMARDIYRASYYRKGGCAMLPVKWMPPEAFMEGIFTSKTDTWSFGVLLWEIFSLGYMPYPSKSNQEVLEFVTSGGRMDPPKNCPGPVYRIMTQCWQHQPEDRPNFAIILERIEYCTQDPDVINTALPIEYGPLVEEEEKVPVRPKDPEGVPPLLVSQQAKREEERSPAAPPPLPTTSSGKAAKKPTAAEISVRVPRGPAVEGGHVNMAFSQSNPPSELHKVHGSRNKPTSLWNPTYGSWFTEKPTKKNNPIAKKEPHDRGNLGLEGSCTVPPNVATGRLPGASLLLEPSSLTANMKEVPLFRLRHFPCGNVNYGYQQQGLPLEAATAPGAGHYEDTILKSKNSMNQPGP
T2 sequence (P08581 956-1390 limits assumed): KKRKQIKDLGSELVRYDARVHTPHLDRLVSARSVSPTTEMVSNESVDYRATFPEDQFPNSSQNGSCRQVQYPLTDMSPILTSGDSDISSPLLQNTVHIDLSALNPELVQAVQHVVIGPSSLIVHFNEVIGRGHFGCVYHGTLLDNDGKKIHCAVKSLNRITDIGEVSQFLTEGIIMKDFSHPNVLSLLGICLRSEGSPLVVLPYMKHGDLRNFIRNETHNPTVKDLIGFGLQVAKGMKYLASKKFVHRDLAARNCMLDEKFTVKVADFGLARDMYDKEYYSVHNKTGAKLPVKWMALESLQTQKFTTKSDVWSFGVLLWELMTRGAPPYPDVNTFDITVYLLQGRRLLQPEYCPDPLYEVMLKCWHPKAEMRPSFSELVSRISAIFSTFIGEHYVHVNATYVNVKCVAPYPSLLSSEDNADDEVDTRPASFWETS

With `CNC(=O)c1ccccc1Nc1nc(Nc2cccc3c2CN(C(C)=O)CCN3)ncc1Cl` [Example 236, 2-[2-(4-Acetyl-2,3,4,5-tetrahydro-1H-benzo[e][1,4]diazepin-6-ylamino)-5-chloro-pyrimidin-4-ylamino]-N-methyl-benzamide], the IC50 in test [1] lay in the range of 100 to 1000 nM; in test [2] it was 1000 to 10000 nM.
Turning to `CNC(=O)c1ccccc1Nc1nc(Nc2cc3c(cc2OC)CCN(CCOC)CC3)ncc1Cl` [Example 241, 2-{5-Chloro-2-[8-methoxy-3-(2-methoxy-ethyl)-2,3,4,5-tetrahydro-1H-benzo[d]azepin-7-ylamino]-pyrimidin-4-ylamino}-N-methyl-benzamide], the IC50 in test [1] is less than 100 nM; in test [2], 100 to 1000 nM.
For the compound `COCCN1CCc2cc(Nc3ncc(Cl)c(Nc4ccccc4NS(C)(=O)=O)n3)c(OC)cc2CC1` [Example 242, N-(2-{5-Chloro-2-[8-methoxy-3-(2-methoxy-ethyl)-2,3,4,5-tetrahydro-1H-benzo[d]azepin-7-ylamino]-pyrimidin-4-ylamino}-phenyl)-methanesulfonamide], the IC50 in test [1] is less than 100 nM; in test [2], 1000 to 10000 nM.
On to `COCCN1CCc2cc(Nc3ncc(Cl)c(Nc4cc(Cl)ccc4OC)n3)c(OC)cc2CC1` [Example 243, 5-Chloro-N*4*-(5-chloro-2-methoxy-phenyl)-N*2*-[8-methoxy-3-(2-methoxy-ethyl)-2,3,4,5-tetrahydro-1H-benzo[d]azepin-7-yl]-pyrimidine-2,4-diamine], for which the IC50 in test [1] is less than 100 nM; in test [2] it was greater than 10000 nM.
Turning to `COCCN1CCc2ccc(OC)c(Nc3ncc(Cl)c(N[C@@H]4CCCC[C@H]4NS(C)(=O)=O)n3)c2CC1` [Example 244, N-((1R,2R)-2-{5-Chloro-2-[7-methoxy-3-(2-methoxy-ethyl)-2,3,4,5-tetrahydro-1H-benzo[d]azepin-6-ylamino]-pyrimidin-4-ylamino}-cyclohexyl)-methanesulfonamide], the values for the IC50 in test [1] and in test [2] were 1000 to 10000 nM and greater than 10000 nM, respectively.
Take `COCCN1CCc2ccc(OC)c(Nc3ncc(Cl)c(Nc4ccc(N5CCOCC5)cc4OC)n3)c2CC1` [Example 246, 5-Chloro-N(2)-[7-methoxy-3-(2-methoxy-ethyl)-2,3,4,5-tetrahydro-1H-benzo[d]azepin-6-yl]-N(4)-(2-methoxy-4-morpholin-4-yl-phenyl)-pyrimidine-2,4-diamine]: the IC50 was 1000 to 10000 nM in test [1] and greater than 10000 nM in test [2].
In the same order, the values of `COc1cc2c(cc1Nc1ncc(Cl)c(N[C@@H]3CCCC[C@H]3NS(C)(=O)=O)n1)CCN(C(=O)C(F)(F)F)CC2` [Example 247, N-((1R,2R)-2-{5-Chloro-2-[8-methoxy-3-(2,2,2-trifluoro-acetyl)-2,3,4,5-tetrahydro-1H-benzo[d]azepin-7-ylamino]-pyrimidin-4-ylamino}-cyclohexyl)-methanesulfonamide] are less than 100 nM and greater than 10000 nM.
Regarding `COc1cc2c(cc1Nc1ncc(Cl)c(N[C@@H]3CCCC[C@H]3NS(C)(=O)=O)n1)CCN(CC(F)(F)F)CC2` [Example 248, N-((1R,2R)-2-{5-Chloro-2-[8-methoxy-3-(2,2,2-trifluoro-ethyl)-2,3,4,5-tetrahydro-1H-benzo[d]azepin-7-ylamino]-pyrimidin-4-ylamino}-cyclohexyl)-methanesulfonamide], the IC50 is less than 100 nM in test [1] and greater than 10000 nM in test [2].
Consider `COc1cc2c(cc1Nc1ncc(Cl)c(Nc3ccc(N4CCOCC4)cc3OC)n1)CCN(CC(F)(F)F)CC2` [Example 249, 5-Chloro-N*4*-(2-methoxy-4-morpholin-4-yl-phenyl)-N*2*-[8-methoxy-3-(2,2,2-trifluoro-ethyl)-2,3,4,5-tetrahydro-1H-benzo[d]azepin-7-yl]-pyrimidine-2,4-diamine], for which the figures for the IC50 in test [1] and in test [2] were less than 100 nM and greater than 10000 nM, respectively.
As for `CCN1CCc2cc(Nc3ncc(Cl)c(N[C@@H]4CCCC[C@H]4NS(C)(=O)=O)n3)c(OC)cc2CC1=O` [Example 251, N-{(1R,2R)-2-[5-Chloro-2-(3-ethyl-8-methoxy-2-oxo-2,3,4,5-tetrahydro-1H-benzo[d]azepin-7-ylamino)-pyrimidin-4-ylamino]-cyclohexyl}-methanesulfonamide], the IC50 in test [1] was less than 100 nM; in test [2], greater than 10000 nM.
In the same order, the values of `CCN1CCc2cc(Nc3ncc(Cl)c(NC4C5C=CC(C5)C4C(N)=O)n3)c(OC)cc2CC1=O` (stereo not drawn) [Example 252, (2-exo,3-exo)-3-[5-Chloro-2-(3-ethyl-8-methoxy-2-oxo-2,3,4,5-tetrahydro-1H-benzo[d]azepin-7-ylamino)-pyrimidin-4-ylamino]-bicyclo[2.2.1]hept-5-ene-2-carboxylic acid amide] are less than 100 nM and greater than 10000 nM.
With `CCN1CCc2cc(Nc3ncc(Cl)c(Nc4ccccc4C(=O)NC)n3)c(OC)cc2CC1=O` [Example 253, 2-[5-Chloro-2-(3-ethyl-8-methoxy-2-oxo-2,3,4,5-tetrahydro-1H-benzo[d]azepin-7-ylamino)-pyrimidin-4-ylamino]-N-methyl-benzamide], the IC50 in test [1] was less than 100 nM; in test [2], 1000 to 10000 nM.
Take `CCN1CCc2cc(Nc3ncc(Cl)c(Nc4ccc(N5CCOCC5)cc4OC)n3)c(OC)cc2CC1=O` [Example 254, 7-[5-Chloro-4-(2-methoxy-4-morpholin-4-yl-phenylamino)-pyrimidin-2-ylamino]-3-ethyl-8-methoxy-1,3,4,5-tetrahydro-benzo[d]azepin-2-one]: the values for the IC50 in test [1] and in test [2] were less than 100 nM and greater than 10000 nM, respectively.
The corresponding values for `CCNC(=O)c1ccccc1Nc1nc(Nc2cc3c(cc2OC)CC(=O)N(CC)CC3)ncc1Cl` [Example 255, 2-[5-Chloro-2-(3-ethyl-8-methoxy-2-oxo-2,3,4,5-tetrahydro-1H-benzo[d]azepin-7-ylamino)-pyrimidin-4-ylamino]-N-ethyl-benzamide] are less than 100 nM and greater than 10000 nM.
For the compound `COc1cc2c(cc1Nc1ncc(Cl)c(N[C@@H]3CCCC[C@H]3NS(C)(=O)=O)n1)CCN(CCNC(C)=O)CC2` [Example 256, N-(2-{7-[5-Chloro-4-((1R,2R)-2-methanesulfonylamino-cyclohexylamino)-pyrimidin-2-ylamino]-8-methoxy-1,2,4,5-tetrahydro-benzo[d]azepin-3-yl}-ethyl)-acetamide], the figures for the IC50 in test [1] and in test [2] were less than 100 nM and greater than 10000 nM, respectively.
Regarding `COc1cc2c(cc1Nc1ncc(Cl)c(Nc3ccc(N4CCOCC4)cc3OC)n1)CCN(CCNC(C)=O)CC2` [Example 257, N-(2-{7-[5-Chloro-4-(2-methoxy-4-morpholin-4-yl-phenylamino)-pyrimidin-2-ylamino]-8-methoxy-1,2,4,5-tetrahydro-benzo[d]azepin-3-yl}-ethyl)-acetamide], the IC50 in test [1] is less than 100 nM; in test [2] it was greater than 10000 nM.
For `COc1cc2c(cc1Nc1ncc(Cl)c(N[C@@H]3CCCC[C@H]3NS(C)(=O)=O)n1)CCN(CC(=O)N(C)C)CC2` [Example 258, 2-{7-[5-Chloro-4-((1R,2R)-2-methanesulfonylamino-cyclohexylamino)-pyrimidin-2-ylamino]-8-methoxy-1,2,4,5-tetrahydro-benzo[d]azepin-3-yl}-N,N-dimethyl-acetamide], the IC50 in test [1] was less than 100 nM; in test [2], greater than 10000 nM.
In the same order, the values of `CNC(=O)c1ccccc1Nc1nc(Nc2cc3c(cc2OC)CCN(CC(=O)N(C)C)CC3)ncc1Cl` [Example 259, 2-[5-Chloro-2-(3-dimethylcarbamoylmethyl-8-methoxy-2,3,4,5-tetrahydro-1H-benzo[d]azepin-7-ylamino)-pyrimidin-4-ylamino]-N-methyl-benzamide] are less than 100 nM and 100 to 1000 nM.
Regarding `COc1cc2c(cc1Nc1ncc(Cl)c(NC3C4C=CC(C4)C3C(N)=O)n1)CCN(CC(=O)N(C)C)CC2` (stereo not drawn) [Example 260, (2-exo,3-exo)-3-[5-Chloro-2-(3-dimethylcarbamoylmethyl-8-methoxy-2,3,4,5-tetrahydro-1H-benzo[d]azepin-7-ylamino)-pyrimidin-4-ylamino]-bicyclo[2.2.1]hept-5-ene-2-carboxylic acid amide], the values for the IC50 in test [1] and in test [2] were less than 100 nM and greater than 10000 nM, respectively.
As for `CCNC(=O)c1ccccc1Nc1nc(Nc2cc3c(cc2OC)CCN(CC(=O)N(C)C)CC3)ncc1Cl` [Example 262, 2-[5-Chloro-2-(3-dimethylcarbamoylmethyl-8-methoxy-2,3,4,5-tetrahydro-1H-benzo[d]azepin-7-ylamino)-pyrimidin-4-ylamino]-N-ethyl-benzamide], the IC50 is less than 100 nM in test [1] and 1000 to 10000 nM in test [2].
Regarding `COc1cc2c(cc1Nc1ncc(Cl)c(N[C@@H]3CCCC[C@H]3NS(C)(=O)=O)n1)CCNC(=O)C2` [Example 263, N-{(1R,2R)-2-[5-Chloro-2-(8-methoxy-2-oxo-2,3,4,5-tetrahydro-1H-benzo[d]azepin-7-ylamino)-pyrimidin-4-ylamino]-cyclohexyl}-methanesulfonamide], the IC50 is less than 100 nM in test [1] and greater than 10000 nM in test [2].
As to `CNC(=O)c1ccccc1Nc1nc(Nc2cc3c(cc2OC)CC(=O)NCC3)ncc1Cl` [Example 264, 2-[5-Chloro-2-(8-methoxy-2-oxo-2,3,4,5-tetrahydro-1H-benzo[d]azepin-7-ylamino)-pyrimidin-4-ylamino]-N-methyl-benzamide], the IC50 in test [1] was less than 100 nM; in test [2] it was 1000 to 10000 nM.
Take `CCNC(=O)c1ccccc1Nc1nc(Nc2cc3c(cc2OC)CC(=O)NCC3)ncc1Cl` [Example 265, 2-[5-Chloro-2-(8-methoxy-2-oxo-2,3,4,5-tetrahydro-1H-benzo[d]azepin-7-ylamino)-pyrimidin-4-ylamino]-N-ethyl-benzamide]: the IC50 in test [1] was less than 100 nM; in test [2] it was 100 to 1000 nM.

These data come from patent US8148391B2 (Cephalon, Inc., priority 2006, dated 2012).
